Laboratory results as given in patent US20100267561A1, “HERBICIDAL PYRIDAZINONE DERIVATIVES” (priority 2007, published 2010).

Experiments:
Test in all cases: Test B pre-/postemergence plant response
Assay type in all cases: in vivo
[1] = system: woolly cupgrass (Eriochloa villosa); conditions: for Cupgrass, Woolly plant response rating: 8 g ai/ha
How it was run: (§1)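 Preemergence and postemergence (plants 2-18 cm, 1- to 4-leaf stage) applications used test chemicals in a non-phytotoxic solvent with surfactant. Plants were held in a greenhouse 13 to 15 days, then rated visually against controls on a 0-100 scale (0 no effect, 100 complete control).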

[2] = system: Russian thistle (Salsola iberica); conditions: Preemergence
How it was run: as §1

corn (Zea mays) = conditions: for Corn plant response rating: 8 g ai/ha
How it was run: as §1

kochia (Kochia scoparia) = conditions: for Plant response rating, Kochia: Postemergence
How it was run: as §1

[3] = system: yellow nutsedge (Cyperus esculentus); conditions: for Nutsedge, Yellow plant response rating: 8 g ai/ha
How it was run: as §1

[4] = system: green foxtail (Setaria viridis); conditions: for Foxtail, Green plant response rating: 8 g ai/ha
How it was run: as §1

[5] = system: cocklebur (Xanthium strumarium); conditions: for Cocklebur plant response rating: 8 g ai/ha
How it was run: as §1

[6] = system: wheat (Triticum aestivum); conditions: for Wheat plant response rating: 8 g ai/ha
How it was run: as §1

[7] = system: lambsquarters (Chenopodium album); conditions: for Lambsquarters plant response rating: 8 g ai/ha
How it was run: as §1

[8] = system: giant foxtail (Setaria faberii); conditions: for Foxtail, Giant plant response rating: 8 g ai/ha
How it was run: as §1

soybean (Glycine max) = system: soybean (Glycine max)
How it was run: as §1

[9] = system: velvetleaf (Abutilon theophrasti); conditions: for Velvetleaf plant response rating: 8 g ai/ha
How it was run: as §1

[10] = system: bermudagrass (Cynodon dactylon); conditions: for Bermudagrass plant response rating: 8 g ai/ha
How it was run: as §1

[11] = system: goosegrass (Eleusine indica); conditions: for Goosegrass plant response rating: 8 g ai/ha
How it was run: as §1

[12] = Postemergence, 16 g ai/ha, scale 0 to 100
[13] = Postemergence, 31 g ai/ha, scale 0 to 100, 0 no effect, 100 complete control
[14] = Postemergence, 62 g ai/ha, scale 0 to 100, 0 no effect, 100 complete control
[15] = Preemergence, 16 g ai/ha, scale 0 to 100 (0 no effect, 100 complete control)
[16] = Preemergence, 31 g ai/ha, 0 to 100 scale, 0 no effect, 100 complete control
[17] = Preemergence, 62 g ai/ha, scale 0 to 100
[18] = 8 g ai/ha, postemergence, 0-100 scale

Cn1ncc(O)c(-c2nn(-c3ccc(Cl)cc3)cc2Cl)c1=O [Compound 28]
Cupgrass, Woolly plant response rating ([1]; postemergence, 0-100 scale): 50
Plant response rating, Cupgrass, Woolly [1, 12]: 55
Plant response rating, Cupgrass, Woolly [1, 13]: 95
Plant response rating, Cupgrass, Woolly [1, 14]: 95
Plant response rating, Cupgrass, Woolly [1, 15]: 30
Plant response rating, Cupgrass, Woolly [1, 16]: 98
Plant response rating, Cupgrass, Woolly [1, 17]: 98
Cupgrass, Woolly plant response rating ([1]; Preemergence, scale 0 to 100): 0
Plant response rating, Russian Thistle ([2]; 16 g ai/ha, scale 0 to 100 (0 no effect, 100 complete control)): 0
Plant response rating, Russian Thistle ([2]; 31 g ai/ha, 0 to 100 scale, 0 no effect, 100 complete control): 0
Plant response rating, Russian Thistle ([2]; 62 g ai/ha, scale 0 to 100): 0
Russian Thistle plant response rating ([2]; 8 g ai/ha, scale 0 to 100): 0
Corn plant response rating (corn (Zea mays); postemergence, 0-100 scale): 0
Plant response rating, Corn (corn (Zea mays); [12]): 0
Plant response rating, Corn (corn (Zea mays); [13]): 0
Plant response rating, Corn (corn (Zea mays); [14]): 40
Plant response rating, Corn (corn (Zea mays); [15]): 0
Plant response rating, Corn (corn (Zea mays); [16]): 55
Plant response rating, Corn (corn (Zea mays); [17]): 90
Corn plant response rating (corn (Zea mays); Preemergence, scale 0 to 100): 0
Kochia plant response rating (kochia (Kochia scoparia); [18]): 0
Plant response rating, Kochia (kochia (Kochia scoparia); 16 g ai/ha, scale 0 to 100): 0
Plant response rating, Kochia (kochia (Kochia scoparia); 31 g ai/ha, scale 0 to 100, 0 no effect, 100 complete control): 0
Plant response rating, Kochia (kochia (Kochia scoparia); 62 g ai/ha, scale 0 to 100, 0 no effect, 100 complete control): 0
Nutsedge, Yellow plant response rating ([3]; postemergence, 0-100 scale): 0
Plant response rating, Nutsedge, Yellow [3, 12]: 0
Plant response rating, Nutsedge, Yellow [3, 13]: 0
Plant response rating, Nutsedge, Yellow [3, 14]: 0
Plant response rating, Nutsedge, Yellow [3, 15]: 0
Plant response rating, Nutsedge, Yellow [3, 16]: 0
Plant response rating, Nutsedge, Yellow [3, 17]: 0
Nutsedge, Yellow plant response rating ([3]; Preemergence, scale 0 to 100): 0
Foxtail, Green plant response rating ([4]; postemergence, 0-100 scale): 60
Plant response rating, Foxtail, Green [4, 12]: 65
Plant response rating, Foxtail, Green [4, 13]: 98
Plant response rating, Foxtail, Green [4, 14]: 100
Plant response rating, Foxtail, Green [4, 15]: 100
Plant response rating, Foxtail, Green [4, 16]: 100
Plant response rating, Foxtail, Green [4, 17]: 100
Foxtail, Green plant response rating ([4]; Preemergence, scale 0 to 100): 30
Cocklebur plant response rating ([5]; postemergence, 0-100 scale): 0
Plant response rating, Cocklebur [5, 12]: 0
Plant response rating, Cocklebur [5, 13]: 0
Plant response rating, Cocklebur [5, 14]: 0
Plant response rating, Cocklebur [5, 15]: 0
Plant response rating, Cocklebur [5, 16]: 0
Plant response rating, Cocklebur [5, 17]: 0
Cocklebur plant response rating ([5]; Preemergence, scale 0 to 100): 0
Wheat plant response rating ([6]; postemergence, 0-100 scale): 20
Plant response rating, Wheat [6, 12]: 40
Plant response rating, Wheat [6, 14]: 90
Plant response rating, Wheat [6, 15]: 5
Plant response rating, Wheat [6, 16]: 15
Plant response rating, Wheat [6, 17]: 90
Wheat plant response rating ([6]; Preemergence, scale 0 to 100): 0
Lambsquarters plant response rating ([7]; postemergence, 0-100 scale): 0
Plant response rating, Lambsquarters [7, 12]: 0
Plant response rating, Lambsquarters [7, 13]: 0
Plant response rating, Lambsquarters [7, 14]: 0
Plant response rating, Lambsquarters [7, 15]: 95
Plant response rating, Lambsquarters [7, 16]: 95
Plant response rating, Lambsquarters [7, 17]: 98
Lambsquarters plant response rating ([7]; Preemergence, scale 0 to 100): 80
Foxtail, Giant plant response rating ([8]; postemergence, 0-100 scale): 65
Plant response rating, Foxtail, Giant [8, 12]: 80
Plant response rating, Foxtail, Giant [8, 13]: 95
Plant response rating, Foxtail, Giant [8, 14]: 100
Plant response rating, Foxtail, Giant [8, 15]: 98
Plant response rating, Foxtail, Giant [8, 16]: 100
Plant response rating, Foxtail, Giant [8, 17]: 100
Foxtail, Giant plant response rating ([8]; Preemergence, scale 0 to 100): 60
Soybean plant response rating (soybean (Glycine max); [18]): 0
Plant response rating, Soybean (soybean (Glycine max); [12]): 0
Plant response rating, Soybean (soybean (Glycine max); [14]): 20
Plant response rating, Soybean (soybean (Glycine max); [16]): 0
Plant response rating, Soybean (soybean (Glycine max); [17]): 0
Velvetleaf plant response rating ([9]; postemergence, 0-100 scale): 0
Plant response rating, Velvetleaf [9, 12]: 0
Plant response rating, Velvetleaf [9, 14]: 0
Plant response rating, Velvetleaf [9, 15]: 0
Plant response rating, Velvetleaf [9, 16]: 0
Plant response rating, Velvetleaf [9, 17]: 0
Velvetleaf plant response rating ([9]; Preemergence, scale 0 to 100): 0
Bermudagrass plant response rating ([10]; postemergence, 0-100 scale): 65
Plant response rating, Bermudagrass [10, 12]: 80
Plant response rating, Bermudagrass [10, 13]: 100
Plant response rating, Bermudagrass [10, 14]: 100
Bermudagrass plant response rating ([10]; Preemergence, scale 0 to 100 (0 no effect, 100 complete control)): 0
Plant response rating, Bermudagrass [10, 15]: 100
Plant response rating, Bermudagrass [10, 16]: 100
Plant response rating, Bermudagrass [10, 17]: 100
Goosegrass plant response rating ([11]; postemergence, 0-100 scale): 65
Plant response rating, Goosegrass [11, 12]: 75
Plant response rating, Goosegrass [11, 13]: 80
Plant response rating, Goosegrass [11, 14]: 90
Plant response rating, Goosegrass [11, 15]: 100
Plant response rating, Goosegrass [11, 16]: 100
Plant response rating, Goosegrass [11, 17]: 100
Goosegrass plant response rating ([11]; Preemergence, scale 0 to 100): 80
